In publication PMC3087488 (Journal of Oncology, 2011):
Marks after values point to notes of the source that are not given here.

Assay: adverse events in patients (CTCAE version 3.0)
Assay type: in vivo, human
Details: for Any motesanib-related AE, Grade 5 / Motesanib-related AE: Anorexia / Motesanib-related AE: Constipation / Motesanib-related AE: Deep vein thrombosis / Motesanib-related AE: Dehydration / Motesanib-related AE: Dermatitis acneiform / Motesanib-related AE: Diarrhea / Motesanib-related AE: Erythema / Motesanib-related AE: Fatigue / Motesanib-related AE: Hypertension / Motesanib-related AE: Nausea / Motesanib-related AE: Pulmonary embolism / Motesanib-related AE: Rash / Motesanib-related AE: Vomiting / Motesanib-related Arterial thromboembolic events (all grades) / Motesanib-related Arterial thrombosis, Grade 3 / Motesanib-related Arterial thrombosis, Grade 4 / Motesanib-related Cerebrovascular accident, Grade 2 / Motesanib-related Deep vein thrombosis, Grade 2 / Motesanib-related Deep vein thrombosis, Grade 3 / Motesanib-related Gallbladder disorder, Grade 1 / Motesanib-related Hemorrhagic events, Grade 1 / Motesanib-related Jugular vein thrombosis, Grade 2 / Motesanib-related Neutropenia, Grade 3 / Motesanib-related Pulmonary embolism, Grade 4 / Motesanib-related Pulmonary embolism, Grade 5 / Motesanib-related Venous thromboembolic events (all grades) / Patients with any motesanib-related AE / Any motesanib-related AE, Grade 3 / Any motesanib-related AE, Grade 4: gemcitabine/cisplatin
Method: Adverse events were recorded throughout the study and graded (including DLTs) according to the Common Terminology Criteria for Adverse Events, version 3.0. Samples for assessment of hematology, blood chemistry, urinalysis, and thyroid function were collected on day 1 of each cycle.

[1] = motesanib 75 mg QD (n = 6) + panitumumab
[2] = motesanib 100 mg QD (n = 6) + panitumumab
[3] = motesanib 125 mg QD (n = 11) + panitumumab

CC1(C)CNc2cc(NC(=O)c3cccnc3NCc3ccncc3)ccc21 [motesanib]
Any motesanib-related AE, Grade 5 [1]: 0 (0) n (%)
Motesanib-related AE: Anorexia [1]: 0 (0) n (%)
Motesanib-related AE: Constipation [1]: 2 (33) n (%)
Motesanib-related AE: Deep vein thrombosis [1]: 0 (0) n (%)
Motesanib-related AE: Dehydration [1]: 1 (17) n (%)
Motesanib-related AE: Dermatitis acneiform [1]: 2 (33) n (%)
Motesanib-related AE: Diarrhea [1]: 1 (17) n (%)
Motesanib-related AE: Erythema [1]: 2 (33) n (%)
Motesanib-related AE: Fatigue [1]: 2 (33) n (%)
Motesanib-related AE: Hypertension [1]: 4 (67) n (%)
Motesanib-related AE: Nausea [1]: 5 (83) n (%)
Motesanib-related AE: Pulmonary embolism [1]: 2 (33) n (%)
Motesanib-related AE: Rash [1]: 1 (17) n (%)
Motesanib-related AE: Vomiting [1]: 3 (50) n (%)
Motesanib-related Arterial thromboembolic events (all grades) [1]: 0 (0) n (%)
Motesanib-related Arterial thrombosis, Grade 3 [1]: 0 (0) n (%)
Motesanib-related Arterial thrombosis, Grade 4 [1]: 0 (0) n (%)
Motesanib-related Cerebrovascular accident, Grade 2 [1]: 0 (0) n (%)
Motesanib-related Deep vein thrombosis, Grade 2 [1]: 0 (0) n (%)
Motesanib-related Deep vein thrombosis, Grade 3 [1]: 0 (0) n (%)
Motesanib-related Gallbladder disorder, Grade 1 [1]: 1 (17) n (%)
Motesanib-related Hemorrhagic events, Grade 1 [1]: 0 (0) n (%)
Motesanib-related Jugular vein thrombosis, Grade 2 [1]: 1 (17) n (%)
Motesanib-related Neutropenia, Grade 3 [1]: 0 (0) n (%)
Motesanib-related Pulmonary embolism, Grade 4 [1]: 2 (33) n (%)
Motesanib-related Pulmonary embolism, Grade 5 [1]: 0 (0) n (%)
Motesanib-related Venous thromboembolic events (all grades) [1]: 3 (50) n (%)
Patients with any motesanib-related AE [1]: 6 (100) n (%)
Any motesanib-related AE, Grade 3 [2]: 1 (17) n (%)
Any motesanib-related AE, Grade 4 [2]: 2 (33) n (%)
Any motesanib-related AE, Grade 5 [2]: 0 (0) n (%)
Motesanib-related AE: Anorexia [2]: 2 (33) n (%)
Motesanib-related AE: Constipation [2]: 0 (0) n (%)
Motesanib-related AE: Deep vein thrombosis [2]: 1 (17) n (%)
Motesanib-related AE: Dehydration [2]: 0 (0) n (%)
Motesanib-related AE: Dermatitis acneiform [2]: 0 (0) n (%)
Motesanib-related AE: Diarrhea [2]: 0 (0) n (%)
Motesanib-related AE: Erythema [2]: 1 (17) n (%)
Motesanib-related AE: Fatigue [2]: 2 (33) n (%)
Motesanib-related AE: Hypertension [2]: 2 (33) n (%)
Motesanib-related AE: Nausea [2]: 2 (33) n (%)
Motesanib-related AE: Pulmonary embolism [2]: 2 (33) n (%)
Motesanib-related AE: Rash [2]: 0 (0) n (%)
Motesanib-related AE: Vomiting [2]: 1 (17) n (%)
Motesanib-related Arterial thromboembolic events (all grades) [2]: 0 (0) n (%)
Motesanib-related Arterial thrombosis, Grade 3 [2]: 0 (0) n (%)
Motesanib-related Arterial thrombosis, Grade 4 [2]: 0 (0) n (%)
Motesanib-related Cerebrovascular accident, Grade 2 [2]: 0 (0) n (%)
Motesanib-related Deep vein thrombosis, Grade 2 [2]: 0 (0) n (%)
Motesanib-related Deep vein thrombosis, Grade 3 [2]: 1 (17)^b n (%)
Motesanib-related Gallbladder disorder, Grade 1 [2]: 0 (0) n (%)
Motesanib-related Hemorrhagic events, Grade 1 [2]: 1 (17) n (%)
Motesanib-related Jugular vein thrombosis, Grade 2 [2]: 0 (0) n (%)
Motesanib-related Neutropenia, Grade 3 [2]: 0 (0) n (%)
Motesanib-related Pulmonary embolism, Grade 4 [2]: 2 (33)^b n (%)
Motesanib-related Pulmonary embolism, Grade 5 [2]: 0 (0) n (%)
Motesanib-related Venous thromboembolic events (all grades) [2]: 2 (33) n (%)
Patients with any motesanib-related AE [2]: 4 (67) n (%)
Any motesanib-related AE, Grade 3 [3]: 6 (55) n (%)
Any motesanib-related AE, Grade 4 [3]: 3 (27) n (%)
Motesanib-related AE: Anorexia [3]: 4 (36) n (%)
Motesanib-related AE: Constipation [3]: 2 (18) n (%)
Motesanib-related AE: Deep vein thrombosis [3]: 2 (18) n (%)
Motesanib-related AE: Dehydration [3]: 3 (27) n (%)
Motesanib-related AE: Dermatitis acneiform [3]: 2 (18) n (%)
Motesanib-related AE: Diarrhea [3]: 7 (64) n (%)
Motesanib-related AE: Erythema [3]: 0 (0) n (%)
Motesanib-related AE: Fatigue [3]: 6 (55) n (%)
Motesanib-related AE: Hypertension [3]: 5 (45) n (%)
Motesanib-related AE: Nausea [3]: 4 (36) n (%)
Motesanib-related AE: Pulmonary embolism [3]: 3 (27) n (%)
Motesanib-related AE: Rash [3]: 2 (18) n (%)
Motesanib-related AE: Vomiting [3]: 2 (18) n (%)
Motesanib-related Arterial thromboembolic events (all grades) [3]: 1 (9) n (%)
Motesanib-related Arterial thrombosis, Grade 3 [3]: 1 (9) n (%)
Motesanib-related Arterial thrombosis, Grade 4 [3]: 0 (0) n (%)
Motesanib-related Cerebrovascular accident, Grade 2 [3]: 0 (0) n (%)
Motesanib-related Deep vein thrombosis, Grade 2 [3]: 0 (0) n (%)
Motesanib-related Deep vein thrombosis, Grade 3 [3]: 2 (18)^c n (%)
Motesanib-related Gallbladder disorder, Grade 1 [3]: 0 (0) n (%)
Motesanib-related Hemorrhagic events, Grade 1 [3]: 3 (27) n (%)
Motesanib-related Jugular vein thrombosis, Grade 2 [3]: 0 (0) n (%)
Motesanib-related Neutropenia, Grade 3 [3]: 0 (0) n (%)
Motesanib-related Pulmonary embolism, Grade 4 [3]: 3 (27)^c n (%)
Motesanib-related Pulmonary embolism, Grade 5 [3]: 0 (0) n (%)
Motesanib-related Venous thromboembolic events (all grades) [3]: 3 (27) n (%)
Patients with any motesanib-related AE [3]: 11 (100) n (%)
Any motesanib-related AE, Grade 5 (motesanib 125 mg QD (n = 11) + panitumumab, sudden death): 1 (9)^a n (%)
tolerability of the combination treatment (motesanib, panitumumab, and gemcitabine/cisplatin at the doses and schedule administered): not tolerable
patients with motesanib-related adverse events (of the 33 patients who received motesanib (88%)): 29 patients
deaths considered related to motesanib and panitumumab (pulmonary embolism, 50 mg QD, and sudden death, 125 mg QD, within 30 days of treatment): Two
grade 3/4 arterial thrombosis (treatment regimen as a whole): 2 patients
grade 3 deep vein thrombosis (treatment regimen as a whole): 3 patients
grade 4 pulmonary embolism (treatment regimen as a whole): 8 patients
